Source: patent US20240199640A1, “NEGATIVE ALLOSTERIC MODULATORS OF METABOTROPIC GLUTAMATE RECEPTOR 2” (priority 2021, published 2024)
Like-named read-outs stand apart in the source and are kept apart here.

Columns and labels:
group II mGlu receptors = settings: cited from earlier work
human mGlu3 = target: T1, human mGlu3 (Homo sapiens, UniProt Q14832); assay: mGlu GIRK cell-based thallium flux assay, human mGlu3; settings: HEK-293 cells co-expressing human mGlu3 and GIRK; EC80 glutamate; Tl flux
T1 construct: expressed in transfected cells; host or cells: HEK-293
Description: Human embryonic kidney (HEK-293) cell lines stably co-expressing human or rat mGlu2 and G protein-coupled inwardly rectifying potassium (GIRK) channels, or human mGlu3 and GIRK, were used for in vitro evaluation of compound activity in thallium flux assay using a fluorescent thallium indicator dye.
The day before the assay, GIRK cells co-expressing human mGlu3, human or rat mGlu2, as described above, were plated in black-walled, clear-bottomed, amine-coated 384-well plates at a density of 15,000 cells/20 μL/well in the assay medium (glutamine-depleted basal DMEM supplemented with 10% dialyzed FBS, 20 mM HEPES, 1 mM sodium pyruvate). Cells were incubated at 37° C. in the presence of 5% CO2. The next day, assay buffer (Hanks balanced salt solution, 20 mM HEPES, 4.16 mM sodium bicarbonate, pH 7.2) was prepared to dilute compounds and Thallos AM fluorescent dye solution. The 2× Thallos dye solution (final concentration 0.34 μM to the cells) was prepared by mixing the dye stock (2.97 mM in DMSO) to 1:1 with 10% pluronic acid before adding to the assay buffer. Cells were washed with assay buffer using a microplate washer to remove the medium, resulting in 20 μL of buffer remaining in each well. Immediately, 20 μL of 2× Thallos dye solution was added to cells, and incubated for one hour at 25° C. During the cell dye loading incubation period, a 10-point concentration serial dilution of compound was created from a 10 mM DMSO compound stock by performing a 1:3 serial dilution in DMSO using the Bravo liquid handler. The 2× compound plate was generated by transferring 0.24 μL of the diluted compound in each well to a daughter plate using an Echo acoustic liquid handler. This is further diluted in 40 μL assay buffer, resulting in a range from 30 μM to 1.5 nM final concentration in the assay. The agonist plate (5×) was prepared to include EC80 glutamate concentration (a concentration to elicit 80% of a maximally effective glutamate concentration) in thallium buffer (125 mM […], 1 mM magnesium sulfate, 1.8 mM calcium sulfate, 5 mM glucose, 10 mM HEPES, pH 7.2, 12.5 mM thallium sulfate).
(§1) After dye-loading, cell plates were washed with assay buffer to remove excess extracellular dye using a microplate washer, resulting in 20 μL of buffer remaining in each well. After a ten-minute equilibration period, cell, compound and agonist plates were loaded into a Hamamatsu μCell kinetic imaging plate reader equipped with liquid handler to monitor fluorescence changes at 480 nm excitation and 540 nm emission settings. Briefly, after collection of baseline fluorescence, 20 μL of compound was added and incubated for two minutes and twenty seconds. This is immediately followed by adding 10 μL of glutamate-thallium buffer to the wells containing compound. The fluorescent signal was monitored an additional 2.5 minutes after the glutamate addition. Multiple reference wells containing no compound received either no glutamate (for a baseline reference), […] glutamate, or ECmax glutamate (for normalization to maximum response). Fluorescence was measured throughout the experiment at a frequency of 1 measurement per every 2 seconds before the glutamate addition and a frequency of 1 measurement per every 1 second after the glutamate addition. Each compound concentration series occurred one time in each plate, and replicates from two or three plates were used in each experimental run. Thallium solutions were handled and disposed of according to guidelines from the Vanderbilt University Chemical Safety department.
Data were normalized using a static ratio function (F/F0) by dividing every fluorescent measurement by the initial fluorescent value for the corresponding well. The increase in signal resulting from the glutamate/thallium addition of the second add was measured by determining the slope from 3 seconds to 13 seconds after the addition. […]

human mGlu2 = target: T2, human mGlu2 (Homo sapiens, UniProt Q14416); assay: mGlu GIRK cell-based thallium flux assay, human mGlu2; settings: HEK-293 cells co-expressing human mGlu2 and GIRK; EC80 glutamate; Tl flux
T2 construct: expressed in transfected cells; host or cells: HEK-293
Description: The day before the assay, GIRK cells co-expressing human mGlu3, human or rat mGlu2, as described above, were plated in black-walled, clear-bottomed, amine-coated 384-well plates at a density of 15,000 cells/20 μL/well in the assay medium (glutamine-depleted basal DMEM supplemented with 10% dialyzed FBS, 20 mM HEPES, 1 mM sodium pyruvate). Cells were incubated at 37° C. in the presence of 5% CO2. […] Cells were washed with assay buffer using a microplate washer to remove the medium, resulting in 20 μL of buffer remaining in each well. Immediately, 20 μL of 2× Thallos dye solution was added to cells, and incubated for one hour at 25° C. During the cell dye loading incubation period, a 10-point concentration serial dilution of compound was created from a 10 mM DMSO compound stock by performing a 1:3 serial dilution in DMSO using the Bravo liquid handler. The 2× compound plate was generated by transferring 0.24 μL of the diluted compound in each well to a daughter plate using an Echo acoustic liquid handler.
as §1
Data were normalized using a static ratio function (F/F0) by dividing every fluorescent measurement by the initial fluorescent value for the corresponding well. The increase in signal resulting from the glutamate/thallium addition of the second add was measured by determining the slope from 3 seconds to 13 seconds after the addition. The average of all baseline slopes (no compound, no glutamate) was determined and this value was subtracted from all other slope values. The average of all ECmax slopes was determined and this value was used to normalize the baseline-corrected slopes to a percent max value (% Emax). The % Emax values for each compound series were plotted versus the log of the concentration and fit to a 4-parameter logistical equation with no fixed parameters.
Potency is reported as the IC50 resulting from the curve fit.

Helpless (H) mice = settings: cited from earlier work; for activity in the tail suspension test: Helpless (H) mice
mouse = settings: normal animals; cited from earlier work
[1] = tested on: Aβ-induced neurodegeneration; settings: cited from earlier work
[2] = tested on: central mGlu2 and mGlu3 receptors; settings: in vivo; cited from earlier work
mice = settings: treated mice; cited from earlier work
rat = settings: normal animals; cited from earlier work
C57Bl6/J mice = settings: cited from earlier work
[3] = tested on: olfactory bulbectomized rats; settings: repeated administration for 14 days; cited from earlier work
[4] = tested on: social isolation-reared mice; settings: cited from earlier work
[5] = conditioned fear stress; cited from earlier work
[6] = treatment for 7 days; cited from earlier work

T2 sequence (Q14416 19-872): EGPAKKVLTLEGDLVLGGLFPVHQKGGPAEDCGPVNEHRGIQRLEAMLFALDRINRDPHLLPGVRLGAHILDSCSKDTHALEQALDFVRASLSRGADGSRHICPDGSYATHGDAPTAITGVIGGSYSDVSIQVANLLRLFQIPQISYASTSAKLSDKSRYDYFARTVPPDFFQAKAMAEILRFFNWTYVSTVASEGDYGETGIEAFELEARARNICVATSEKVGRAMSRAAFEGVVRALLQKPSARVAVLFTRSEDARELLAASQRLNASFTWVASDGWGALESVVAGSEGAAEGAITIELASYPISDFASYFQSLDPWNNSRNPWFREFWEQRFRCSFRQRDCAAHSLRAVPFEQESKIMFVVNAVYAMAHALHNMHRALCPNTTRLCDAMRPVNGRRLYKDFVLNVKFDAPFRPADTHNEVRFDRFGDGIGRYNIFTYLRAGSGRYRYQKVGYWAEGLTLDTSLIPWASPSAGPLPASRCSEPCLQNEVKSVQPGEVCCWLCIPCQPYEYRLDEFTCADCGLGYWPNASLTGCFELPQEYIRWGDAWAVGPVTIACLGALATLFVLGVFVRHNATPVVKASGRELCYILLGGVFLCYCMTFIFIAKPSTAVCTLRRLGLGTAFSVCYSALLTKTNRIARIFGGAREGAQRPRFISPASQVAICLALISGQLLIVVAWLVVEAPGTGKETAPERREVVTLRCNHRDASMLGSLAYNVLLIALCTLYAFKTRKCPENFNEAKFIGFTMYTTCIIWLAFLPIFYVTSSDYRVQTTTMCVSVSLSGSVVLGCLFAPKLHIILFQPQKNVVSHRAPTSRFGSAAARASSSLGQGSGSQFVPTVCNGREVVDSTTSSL
T1 sequence (Q14832 23-879): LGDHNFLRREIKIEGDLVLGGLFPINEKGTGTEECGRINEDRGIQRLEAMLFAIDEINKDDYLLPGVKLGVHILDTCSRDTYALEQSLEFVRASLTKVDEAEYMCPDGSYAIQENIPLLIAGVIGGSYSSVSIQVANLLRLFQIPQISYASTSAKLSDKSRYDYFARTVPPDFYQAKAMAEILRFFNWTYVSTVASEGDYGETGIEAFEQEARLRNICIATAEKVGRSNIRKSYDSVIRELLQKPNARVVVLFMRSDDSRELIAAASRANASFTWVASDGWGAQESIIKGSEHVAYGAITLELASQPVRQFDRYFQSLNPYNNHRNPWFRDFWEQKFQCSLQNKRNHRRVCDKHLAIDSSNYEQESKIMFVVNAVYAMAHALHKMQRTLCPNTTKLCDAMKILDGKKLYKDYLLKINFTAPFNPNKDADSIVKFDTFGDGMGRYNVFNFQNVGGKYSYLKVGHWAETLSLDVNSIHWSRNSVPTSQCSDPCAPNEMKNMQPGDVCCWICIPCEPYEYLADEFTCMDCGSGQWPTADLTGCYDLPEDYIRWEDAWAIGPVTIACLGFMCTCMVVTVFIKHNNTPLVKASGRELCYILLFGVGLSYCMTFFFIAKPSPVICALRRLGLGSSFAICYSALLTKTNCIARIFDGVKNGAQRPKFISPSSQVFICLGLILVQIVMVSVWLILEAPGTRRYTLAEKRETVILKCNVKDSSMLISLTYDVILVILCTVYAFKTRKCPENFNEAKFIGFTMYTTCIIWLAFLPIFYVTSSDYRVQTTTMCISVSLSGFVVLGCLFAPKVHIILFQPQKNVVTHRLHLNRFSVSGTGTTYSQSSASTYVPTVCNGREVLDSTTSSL

SMILES: N[C@]1(C(=O)O)[C@H]2[C@@H](C[C@H]1OCc1ccc(Cl)c(Cl)c1)[C@]2(F)C(=O)O [BCI-632]
- time for which brain concentration was sufficient to inhibit group II mGlu receptors (group II mGlu receptors; active metabolite after once-daily oral dosing of prodrug BCI-838): 22 h

SMILES: CCCCCCCOC(=O)[C@@]1(F)[C@@H]2C[C@@H](OCc3ccc(Cl)c(Cl)c3)[C@@](N)(C(=O)O)[C@@H]21 [BCI-838]
- levels of monomeric and oAβ peptides in the hippocampus and cortex (group II mGlu receptors; three months of treatment, two AD mouse models): decreased
- Dutch APP transgene-associated learning and memory impairment (group II mGlu receptors; three months of treatment): reversed
- anxiolytic effects (group II mGlu receptors; three months of treatment): anxiolytic effects
- hippocampal progenitor cell proliferation (group II mGlu receptors; wild-type and Alzheimer's diseased mice, 3 months): stimulated

SMILES: COc1ccc(-c2cc3c(cc2OCc2ccn(C(F)F)n2)CNC3=O)c(F)c1 [Compound 25, 5-((1-(difluoromethyl)-1H-pyrazol-3-yl)methoxy)-6-(2-fluoro-4-methoxyphenyl)isoindolin-1-one]
- Human mGlu3 GIRK IC50 (nM) (human mGlu3): Inactive
- IC50 (human mGlu2): 40 nM

SMILES: N[C@](CC1c2ccccc2Oc2ccccc21)(C(=O)O)[C@H]1C[C@@H]1C(=O)O [LY341495]
- activity in the tail suspension test (Helpless (H) mice): active
- antidepressant effect in helpless mice (Helpless (H) mice; acute administration): potent antidepressant effect
- Antidepressant-like effects in mouse tail-suspension test (mouse): Antidepressant-like effects
- Aβ-induced neurodegeneration [1]: prevented
- hypolocomotor effect of mGlu2/3 agonist (LY379268) [2]: achieved the same result
- marble-burying behavior (mice): significantly reduce
- Antidepressant-like effects in rat forced swim test (rat): Antidepressant-like effects
- immobility time in the FST (C57Bl6/J mice): dose-dependently reduced

SMILES: CCS(=O)(=O)N(Cc1cccnc1)c1cccc(-c2ccc(C#N)cc2)c1 [LY566332]
- Aβ-induced neurodegeneration [1]: amplified

SMILES: N[C@]1(C(=O)O)[C@H]2[C@@H](C[C@H]1OCc1ccc(Cl)c(Cl)c1)[C@]2(F)C(=O)O [MGS0039]
- hyperactivity in the open field test [3]: attenuated
- learning deficit in the passive avoidance test [3]: attenuated
- increased immobility in the FST [4]: reversed
- Antidepressant-like effects in mouse tail-suspension test (mouse): Antidepressant-like effects
- freezing behavior [5]: significantly decreased
- number of escape failures [6]: significantly reduced
- marble-burying behavior (mice): reduced
- spontaneous locomotor activity (mice): no significant change
- Antidepressant-like effects in rat forced swim test (rat): Antidepressant-like effects

SMILES: Cc1cc(-c2cccc(C3=Nc4cc(C)c(C(F)(F)F)cc4NC(=O)C3)c2)cc(C)n1 [RO4491533]
- activity in the tail suspension test (Helpless (H) mice): active
- hypolocomotor effect of mGlu2/3 agonist (LY379268) [2]: reversed
- immobility time in the FST (C57Bl6/J mice): dose-dependently reduced

SMILES: CN1C(=O)CN=C(c2ccccc2)c2cc(Cl)ccc21 [diazepam]
- freezing behavior [5]: significantly decreased

SMILES: CNCCC(Oc1ccc(C(F)(F)F)cc1)c1ccccc1 (stereo not drawn) [fluoxetine]
- antidepressant effect in helpless mice (Helpless (H) mice; chronic (21 days) treatment): full antidepressant effect
